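Compound exposure: 48 hours, 5 concentrations, 96-well plates. GI50 marks 50% less growth.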 Activity calls are given as the source filed them. Cut-off read from the data, not from the text of the source: active = GI50 up to about 1.1 µM and inactive = higher.
Assays:
Test in all cases: growth of human tumour cells (NCI), 48 h
786-0 = system: 786-0
A498 = system: A498
COLO 205 = system: COLO 205
HOP-92 = system: HOP-92
M14 = system: M14
M19-MEL = system: M19-MEL
NCI-H522 = system: NCI-H522
OVCAR-5 = system: OVCAR-5
OVCAR-8 = system: OVCAR-8
RPMI-8226 = system: RPMI-8226
RXF 393 = system: RXF 393
SF-268 = system: SF-268
SN12C = system: SN12C
SW-620 = system: SW-620
TK-10 = system: TK-10
OVCAR-4 = system: OVCAR-4

Measured: GI50

COc1ccc2c(c1)C(=O)c1ccc(OC)cc1C2=S
inactive: 786-0 > 100 µM | A498 > 100 µM | COLO 205 > 100 µM | HOP-92 > 100 µM | M14 > 100 µM | M19-MEL > 100 µM | NCI-H522 > 100 µM | OVCAR-5 > 100 µM | OVCAR-8 > 100 µM | RPMI-8226 > 100 µM | RXF 393 > 100 µM | SF-268 81.5 µM | SN12C > 100 µM | SW-620 > 100 µM | TK-10 > 100 µM

CN1C/C(=C\C=C\c2ccccc2)C(=O)/C(=C/C=C/c2ccccc2)C1
inactive: 786-0 87.3 µM | A498 > 100 µM | COLO 205 > 100 µM | M14 > 100 µM | M19-MEL > 100 µM | NCI-H522 54 µM | OVCAR-4 > 100 µM | OVCAR-5 > 100 µM | OVCAR-8 82.2 µM | RPMI-8226 > 100 µM | RXF 393 > 100 µM | SF-268 > 100 µM | SN12C > 100 µM | SW-620 > 100 µM | TK-10 > 100 µM

CCc1cccc(C)c1NS(=O)(=O)c1ccccc1
inactive: 786-0 > 100 µM | A498 > 100 µM | M14 > 100 µM | M19-MEL > 100 µM | OVCAR-4 > 100 µM | OVCAR-5 > 100 µM | OVCAR-8 > 100 µM | RPMI-8226 > 100 µM | RXF 393 > 100 µM | SW-620 > 100 µM | TK-10 > 100 µM

CCOP(=O)(OCC)/C(C#N)=C/c1ccc[nH]1
inactive: 786-0 > 100 µM | COLO 205 > 100 µM | HOP-92 > 100 µM | M14 > 100 µM | M19-MEL > 100 µM | NCI-H522 > 100 µM | OVCAR-4 > 100 µM | OVCAR-5 > 100 µM | OVCAR-8 > 100 µM | RPMI-8226 > 100 µM | RXF 393 > 100 µM | SF-268 > 100 µM | SN12C > 100 µM | SW-620 > 100 µM | TK-10 74.6 µM

Cc1ccc(SC2C(C)(C)N(C(C)C)P2(=O)N(C(C)C)C(C)C)cc1 (stereo not given)
inactive: 786-0 82.4 µM | A498 > 100 µM | COLO 205 > 43.7 µM | HOP-92 5.58 µM | M14 71.4 µM | M19-MEL 26.7 µM | NCI-H522 20.5 µM | OVCAR-4 > 64.9 µM | OVCAR-5 > 100 µM | OVCAR-8 45.5 µM | RPMI-8226 9.35 µM | SF-268 52 µM | SN12C 38.6 µM | SW-620 > 25.5 µM | TK-10 > 100 µM

CN(c1ccccc1)C1C(=O)N(c2ccccc2)C1/C=C/c1ccccc1 (stereo not given)
inactive: 786-0 > 100 µM | A498 5.58 µM | COLO 205 > 100 µM | HOP-92 > 100 µM | M19-MEL > 100 µM | NCI-H522 > 100 µM | OVCAR-5 > 100 µM | OVCAR-8 > 100 µM | RPMI-8226 > 100 µM | RXF 393 > 100 µM | SF-268 > 100 µM | SN12C > 100 µM | SW-620 > 100 µM | TK-10 > 100 µM

CC(=O)ON(C(C)=O)C1C(COC(c2ccccc2)(c2ccccc2)c2ccccc2)OC2OC3(CCCC3)OC21 (stereo not given)
inactive: 786-0 30.9 µM | A498 25.9 µM | COLO 205 > 23.2 µM | HOP-92 2.42 µM | M14 7.18 µM | M19-MEL 6.62 µM | NCI-H522 2.46 µM | OVCAR-4 7.8 µM | OVCAR-5 > 100 µM | OVCAR-8 5.13 µM | RPMI-8226 2.42 µM | RXF 393 4.44 µM | SF-268 10.5 µM | SN12C 5.13 µM | SW-620 8.63 µM | TK-10 > 81.7 µM

CN(C)CN(C)c1nc(N(C)C)nc(N(C)C)n1
inactive: 786-0 > 100 µM | A498 > 100 µM | COLO 205 > 100 µM | HOP-92 > 100 µM | M14 > 100 µM | M19-MEL > 100 µM | NCI-H522 > 100 µM | OVCAR-4 > 100 µM | OVCAR-5 > 100 µM | OVCAR-8 > 100 µM | RPMI-8226 > 100 µM | RXF 393 61.1 µM | SF-268 > 100 µM | SN12C > 100 µM | SW-620 > 100 µM | TK-10 > 100 µM

N#Cc1ccc(Sc2ccccc2)cc1C#N
inactive: 786-0 28.1 µM | A498 > 100 µM | COLO 205 33.2 µM | HOP-92 30.1 µM | M14 > 100 µM | M19-MEL > 100 µM | NCI-H522 31.7 µM | OVCAR-4 > 100 µM | OVCAR-5 > 100 µM | OVCAR-8 31 µM | RPMI-8226 28.1 µM | RXF 393 33 µM | SF-268 22.6 µM | SN12C 60.3 µM | TK-10 80.5 µM

C/C(=N/N)c1sc(-c2nc(C)c(/C(C)=N\N)s2)nc1C
inactive: 786-0 > 55.6 µM | A498 > 100 µM | COLO 205 > 46.1 µM | HOP-92 > 100 µM | M14 > 95.3 µM | M19-MEL > 100 µM | NCI-H522 > 53.6 µM | OVCAR-4 > 100 µM | OVCAR-5 > 100 µM | OVCAR-8 > 86.1 µM | RPMI-8226 35.7 µM | RXF 393 > 100 µM | SF-268 > 100 µM | SN12C > 100 µM | SW-620 > 100 µM | TK-10 > 100 µM

O=C1C=C(Nc2ccccc2C(=O)CC(=O)C(=O)Nc2ccc(Cl)cc2)c2ccccc2C1=O
inactive: 786-0 16.3 µM | A498 > 100 µM | COLO 205 17.9 µM | HOP-92 21.9 µM | M14 10.9 µM | M19-MEL 1.95 µM | NCI-H522 7.85 µM | OVCAR-4 10.9 µM | OVCAR-5 19.6 µM | OVCAR-8 6.59 µM | RPMI-8226 3.21 µM | RXF 393 11.5 µM | SF-268 14.2 µM | SN12C 12.6 µM | SW-620 7.11 µM | TK-10 > 74.5 µM

COc1cc2ccnc3c(=C(SC)SC)c(=O)c(c1OC)c23
inactive: 786-0 11 µM | COLO 205 3.37 µM | HOP-92 5.64 µM | M14 13.9 µM | M19-MEL 16 µM | NCI-H522 1.56 µM | OVCAR-4 15.8 µM | OVCAR-5 20.9 µM | OVCAR-8 10.6 µM | RPMI-8226 3.29 µM | RXF 393 13 µM | SF-268 22.2 µM | SN12C 15.2 µM | SW-620 15.7 µM | TK-10 14 µM

Cc1cc(C)c(/C=N/NS(=O)(=O)c2ccccc2)c(C)c1
inactive: 786-0 > 100 µM | A498 56.1 µM | COLO 205 > 100 µM | HOP-92 36.3 µM | M14 > 100 µM | M19-MEL > 100 µM | OVCAR-4 > 100 µM | OVCAR-5 > 100 µM | OVCAR-8 71.6 µM | RPMI-8226 54.5 µM | RXF 393 44.9 µM | SF-268 > 100 µM | SN12C 92.3 µM | SW-620 > 100 µM | TK-10 > 100 µM

COc1cc(=O)oc(/C=C/CO)c1C
inactive: 786-0 > 100 µM | A498 > 100 µM | COLO 205 > 100 µM | HOP-92 > 100 µM | M14 > 100 µM | M19-MEL > 100 µM | NCI-H522 28.9 µM | OVCAR-4 > 100 µM | OVCAR-5 > 100 µM | OVCAR-8 > 100 µM | RXF 393 > 100 µM | SF-268 > 100 µM | SN12C > 100 µM | SW-620 > 100 µM | TK-10 > 100 µM

O=C1OC(CC(=O)c2ccc(Cl)cc2Cl)C(Cl)=C1Cl (stereo not given)
inactive: 786-0 21.9 µM | A498 > 100 µM | COLO 205 20.8 µM | HOP-92 18.9 µM | M14 27.2 µM | M19-MEL 20 µM | NCI-H522 17.6 µM | OVCAR-4 42.6 µM | OVCAR-5 > 45.1 µM | OVCAR-8 27.2 µM | RPMI-8226 26.9 µM | RXF 393 18.2 µM | SF-268 25.2 µM | SN12C 18.9 µM | SW-620 19.4 µM | TK-10 > 55.5 µM

CN1C/C(=C\c2ccco2)c2nc(N)nc(-c3ccco3)c2C1
inactive: 786-0 > 100 µM | A498 > 100 µM | COLO 205 > 100 µM | M14 > 100 µM | M19-MEL > 100 µM | NCI-H522 > 100 µM | OVCAR-5 > 100 µM | OVCAR-8 75.2 µM | RPMI-8226 31.7 µM | RXF 393 > 100 µM | SF-268 > 100 µM | SN12C > 100 µM | SW-620 > 100 µM | TK-10 > 100 µM

COc1ccc2nc3cc(Cl)ccc3c(Sc3ccccc3[N+](=O)[O-])c2c1
inactive: 786-0 75.3 µM | A498 > 100 µM | COLO 205 17.3 µM | HOP-92 90.2 µM | M14 > 100 µM | M19-MEL > 100 µM | NCI-H522 > 100 µM | OVCAR-4 > 100 µM | OVCAR-5 > 100 µM | OVCAR-8 > 100 µM | RXF 393 49.5 µM | SF-268 > 100 µM | SN12C 28.1 µM | SW-620 > 100 µM | TK-10 81.8 µM

O=S(O)CCCCSSCc1ccccc1CSSCCCCS(=O)O
inactive: 786-0 > 100 µM | A498 40.7 µM | COLO 205 15.5 µM | HOP-92 21.9 µM | M14 10.3 µM | M19-MEL 4.65 µM | NCI-H522 4.43 µM | OVCAR-4 4.21 µM | OVCAR-5 95.1 µM | OVCAR-8 17.1 µM | RPMI-8226 10.8 µM | RXF 393 7.94 µM | SF-268 12.5 µM | SN12C 26 µM | SW-620 25.8 µM | TK-10 43.4 µM
